Measurements as given in US9029337B2, “Modulation of factor 7 expression” (Isis Pharmaceuticals, Inc., priority 2007, dated 2015).
Strand notation (5' to 3'): a small letter for the sugar, then the base; units joined by * are phosphorothioate-linked, units joined directly phosphodiester-linked; [ ] holds rarer units or linkages, { } end groups; capitals alone tell only the bases. e = 2'-O-(2-methoxyethyl) (MOE); [5mC] = 5-methylcytosine; d = 2'-deoxy (DNA)

test system: human Factor 7 mRNA; assay: Antisense inhibition of human Factor 7 mRNA in HepB3 cells, 50 nM antisense oligonucleotide, lipofectin; format: cell-based; conditions: Table 1, 50 nM, lipofectin, approximately 24 hours, relative to untreated control cells
How it was run: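 Readout is percent reduction of Factor 7 message compared with untreated cells, after correction for total RNA content quantified by RIBOGREEN®. Cultures were seeded at 4,000 cells per well and treated for about 24 hours before RNA extraction.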

In order of rising “% Inhibition” value:
1. 407638 (antisense eG*e[5mC]*e[5mC]*eA*e[5mC]*dT*d[5mC]*dG*dA*dT*dG*dT*dA*d[5mC]*dT*eG*eG*eG*eA*eG) [compound 407638]  0%
2. 407628 (antisense eT*eG*eA*eT*eG*dA*d[5mC]*d[5mC]*dT*dG*d[5mC]*dG*d[5mC]*d[5mC]*dA*e[5mC]*e[5mC]*e[5mC]*eG*e[5mC]) [compound 407628]  38%
3. 407650 (antisense e[5mC]*e[5mC]*eA*eT*eG*dT*dG*dA*dG*dG*dG*dT*dT*d[5mC]*dA*eT*eT*eT*e[5mC]*eA) [compound 407650]  39%
4. 407908 (antisense e[5mC]*e[5mC]*e[5mC]*e[5mC]*eA*dG*d[5mC]*d[5mC]*dG*d[5mC]*dT*dG*dA*d[5mC]*d[5mC]*eA*eA*eT*eG*eA) [compound 407908]  47%
5. 407931 (antisense e[5mC]*eT*eT*e[5mC]*eA*dG*dA*dG*dG*dA*d[5mC]*dA*dG*d[5mC]*dA*e[5mC]*eA*e[5mC]*eA*eT) [compound 407931]  56%
6. 407635 (antisense eT*eG*eG*e[5mC]*e[5mC]*d[5mC]*d[5mC]*dA*dG*d[5mC]*dT*dG*dA*d[5mC]*dG*eA*eT*eG*e[5mC]*e[5mC]) [compound 407635]  64%
7. 407615 (antisense eG*eA*e[5mC]*eA*e[5mC]*d[5mC]*d[5mC]*d[5mC]*dG*dT*d[5mC]*dT*dG*d[5mC]*d[5mC]*eA*eG*e[5mC]*eA*eG) [compound 407615]  65%
8. 407911 (antisense e[5mC]*e[5mC]*e[5mC]*e[5mC]*eT*dT*dG*d[5mC]*dA*dG*dG*dA*dG*dT*d[5mC]*e[5mC]*eT*eT*eG*e[5mC]) [compound 407911]  74%
9. 407602 (antisense e[5mC]*eT*eG*e[5mC]*eA*dG*d[5mC]*d[5mC]*dA*dG*dG*d[5mC]*dA*dG*d[5mC]*e[5mC]*e[5mC]*eT*eG*eA) [compound 407602]  81%

same assay, conditions: lipofectin, 50 nM antisense oligonucleotide, approximately 24 hours, Factor 7 mRNA by real-time RT-PCR (RTS 2927), relative to untreated control

In order of falling “% Inhibition” value:
1. 416544 (antisense eA*eT*e[5mC]*e[5mC]*e[5mC]*dA*dT*dT*dT*dT*d[5mC]*d[5mC]*d[5mC]*dA*dG*eG*eA*eG*e[5mC]*e[5mC]) [compound 416544]  58%
2. 416557 (antisense eT*e[5mC]*e[5mC]*e[5mC]*eA*dG*dG*d[5mC]*dA*dA*dA*dG*d[5mC]*dT*dG*e[5mC]*eT*e[5mC]*eA*eG) [compound 416557]  56%
3. 416429 (antisense eA*e[5mC]*eG*e[5mC]*e[5mC]*dG*dT*dG*dG*dG*d[5mC]*dT*dT*d[5mC]*d[5mC]*eT*e[5mC]*e[5mC]*eT*eG) [compound 416429]  47%
4. 416440 (antisense eG*eG*eA*e[5mC]*eT*dG*dG*dA*dG*d[5mC]*dT*dG*dG*dT*d[5mC]*e[5mC]*eT*eT*eG*e[5mC]) [compound 416440]  44%
5. 416515 (antisense eT*eA*eG*eG*e[5mC]*dA*dT*dG*dA*d[5mC]*d[5mC]*dA*dT*d[5mC]*d[5mC]*eT*e[5mC]*eA*eA*eT) [compound 416515]  39%
6. 416548 (antisense eA*eG*eG*eT*eG*dA*dA*dT*dG*dA*dA*dA*dT*dT*d[5mC]*eT*eA*e[5mC]*e[5mC]*eT) [compound 416548]  29%
7. 416436 (antisense eA*e[5mC]*eT*eG*eG*dT*d[5mC]*d[5mC]*d[5mC]*d[5mC]*dA*dT*d[5mC]*dA*d[5mC]*eT*eG*eT*eA*eA) [compound 416436]  27%
8. 416502 (antisense eG*eT*eT*e[5mC]*eT*dT*dT*dG*dA*dA*dA*dA*dA*dT*dA*eA*eT*e[5mC]*e[5mC]*e[5mC]) [compound 416502]  22%
9. 416506 (antisense e[5mC]*eT*eT*eT*eA*dA*dA*dA*dT*d[5mC]*dA*dG*dT*dT*dT*e[5mC]*eA*e[5mC]*eA*e[5mC]) [compound 416506]  18%
10. 416523 (antisense eT*e[5mC]*eT*e[5mC]*eG*dA*dG*dG*dG*d[5mC]*dT*dG*dA*dG*dA*eA*eT*eT*eG*e[5mC]) [compound 416523]  18%
11. 416562 (antisense eA*eA*eA*eG*e[5mC]*dA*dG*dA*dG*d[5mC]*d[5mC]*dA*dG*d[5mC]*dT*e[5mC]*eT*eG*eA*e[5mC]) [compound 416562]  12%
12. 416514 (antisense eG*eT*eA*eT*eT*dT*dT*d[5mC]*dT*dG*dA*dT*dG*dT*dG*eA*eA*eA*eA*e[5mC]) [compound 416514]  8%
13. 416422 (antisense eA*eG*e[5mC]*eG*eA*d[5mC]*d[5mC]*d[5mC]*d[5mC]*dG*d[5mC]*d[5mC]*dT*dG*d[5mC]*eA*eG*e[5mC]*e[5mC]*eA) [compound 416422]  8%
14. 416500 (antisense e[5mC]*eT*eG*eA*eA*d[5mC]*dA*d[5mC]*d[5mC]*d[5mC]*d[5mC]*dA*dG*d[5mC]*dT*eG*eA*eG*eA*eG) [compound 416500]  1%
15. 416503 (antisense eT*eA*eG*e[5mC]*e[5mC]*dA*d[5mC]*d[5mC]*d[5mC]*d[5mC]*dG*d[5mC]*dG*dG*dG*e[5mC]*eT*eG*eG*e[5mC]) [compound 416503]  0%
16. 416566 (antisense eG*eT*eT*eT*eG*dT*dA*dT*dG*dG*dA*dG*dA*dG*dA*e[5mC]*e[5mC]*eA*eA*eT) [compound 416566]  0%
17. 416495 (antisense eT*e[5mC]*eT*eA*eG*dA*dA*dT*dT*d[5mC]*d[5mC]*dA*dA*dA*d[5mC]*e[5mC]*e[5mC]*e[5mC]*eT*eA) [compound 416495]  0%

same assay, conditions: oligonucleotides targeted to nucleobases 11830 to 11869 of SEQ ID NO: 1 (Table 9)

In order of falling “% Inhibition (human Factor 7 mRNA levels)” value:
1. 422105 (antisense eT*eG*eG*e[5mC]*eT*dG*dA*dG*dG*dA*dG*dA*d[5mC]*dA*dA*eT*eG*eG*eT*e[5mC]) [compound 422105]  60%
2. 422244 (antisense eG*eA*dG*dG*dA*dG*dA*d[5mC]*dA*dA*dT*dG*dG*dT*d[5mC]*eA*eG*eG*eG*e[5mC]) [compound 422244]  55%
3. 422174 (antisense eG*e[5mC]*eT*dG*dG*d[5mC]*dT*dG*dA*dG*dG*dA*dG*dA*d[5mC]*dA*dA*eT*eG*eG) [compound 422174]  55%
4. 422098 (antisense eG*eG*eA*eG*eA*d[5mC]*dA*dA*dT*dG*dG*dT*d[5mC]*dA*dG*eG*eG*e[5mC]*eT*eG) [compound 422098]  53%
5. 422232 (antisense eG*eT*d[5mC]*dA*dG*dG*dG*d[5mC]*dT*dG*dG*dT*dT*dT*dT*eG*eG*eA*eG*eG) [compound 422232]  41%
6. 422172 (antisense eT*eG*eG*d[5mC]*dT*dG*dA*dG*dG*dA*dG*dA*d[5mC]*dA*dA*dT*dG*eG*eT*e[5mC]) [compound 422172]  39%
7. 422231 (antisense eT*e[5mC]*dA*dG*dG*dG*d[5mC]*dT*dG*dG*dT*dT*dT*dT*dG*eG*eA*eG*eG*eA) [compound 422231]  22%

same assay, conditions: oligonucleotides targeted to nucleobases 13760 to 13789 of SEQ ID NO: 1 (Table 10)

With “422258 (antisense eG*e[5mC]*d[5mC]*dA*d[5mC]*d[5mC]*d[5mC]*dG*d[5mC]*d[5mC]*dG*dG*d[5mC]*dT*d[5mC]*eT*eG*e[5mC]*eT*e[5mC]) [compound 422258]” the “% Inhibition (human Factor 7 mRNA levels)” value was 66%.

same assay, conditions: oligonucleotides targeted to nucleobases 14707 to 14732 of SEQ ID NO: 1 (Table 11)

“422204 (antisense eG*e[5mC]*eA*dG*d[5mC]*d[5mC]*dT*dG*dA*dG*dG*d[5mC]*d[5mC]*dA*dG*d[5mC]*dA*eG*eA*eT) [compound 422204]” was tested, and the “% Inhibition (human Factor 7 mRNA levels)” value was 72%.
